{"source": "patent US20190315814A1", "about": "“LANTIBIOTIC VARIANTS AND USES THEREOF” (priority 2016, published 2019)", "key": {"Clostridium difficile": {"system": "Clostridium difficile", "assay": "C. difficile MIC assay (broth dilution)", "type": "cell-based", "settings": "Clostridioides difficile", "method": "A minimum inhibitory concentration (MIC) assessment was performed using the anaerobic human gastrointestinal pathogen Clostridium difficile. A modification of the CLSI M11-A8 broth dilution method for Bacteroides fragilis susceptibility testing was used for C. difficile. (Methods for Dilution In Antimicrobial Susceptibility Tests for Bacteria That Grow Aerobically; Approved Standard-Eighth Edition. CLSI document M07-A8 (ISBN 1-56238-689-1). Vol. 29 No. 2. Clinical and Laboratory Standards Institute, USA, 2009). […] C. difficile was streaked and incubated on blood agar plates under anaerobic conditions. […] A 4 μL aliquot of each dilution was added to 196 μL of Reinforced Clostridial Medium (RCM), with test strains in wells of a 96 well plate. The final volume was 200 μL in each well.\nMultisite variants were subsequently tested for specific antimicrobial activity in a C. difficile MIC assay (Table 10) (Methods for Antimicrobial Susceptibility Testing of Anaerobic Bacteria Approved Standard-Seventh Edition. CLSI document M11-A8 (ISBN 1-56238-790-1). Vol. 32 No. 5. Clinical and Laboratory Standards Institute, USA, 2012)."}, "[1]": {"system": "Lactobacillus acidophilus (CCUG 4356)", "assay": "microbe, parasite or virus in culture", "settings": "CCUG4356, read-out: MIC L. acidophilus"}, "[2]": {"system": "Clostridium scindens (ATCC 35704)", "assay": "microbe, parasite or virus in culture", "settings": "ATCC35704, read-out: MIC C. scindens"}, "[3]": {"system": "Clostridium difficile UNT103-1", "assay": "Non-cannulated Syrian hamster C. difficile infection model, oral gavage", "type": "in vivo, Golden Syrian hamsters", "method": "(§1) Following the recovery phase, male Golden Syrian hamsters were inoculated with Clostridium difficile UNT103-1 (VA11, non epidemic (cdtB-, REA group J) Curtis Donskey, Cleveland VA Hospital, Cleveland, Ohio). On Day 1, at 24 hrs after infection, all animals received a single subcutaneous injection of clindamycin (10 mg/kg). Test article formulations were administered three times per day (TID), starting on Day 2 at 18 hours after Clindamycin injection, for 5 consecutive days (Days 2 through 6), and followed until Day 22 to assess recurrence. Vancomycin (positive control) was administered once a day at 20 mg/kg on Days 2 through 6. Cecal spore counts and Toxins A and B were determined as described above"}, "[4]": {"system": "Mycobacterium phlei (ATCC 11758)", "assay": "MIC assay against Mycobacterium phlei (acid-fast)", "type": "cell-based", "settings": "Mycolicibacterium phlei, ATCC11758; acid-fast microorganism; single site variants"}, "[5]": {"system": "Bifidobacterium breve (ATCC 15700)", "assay": "microbe, parasite or virus in culture", "settings": "ATCC15700, read-out: MIC B. breve"}, "[6]": {"system": "Clostridium difficile UNT103-1", "assay": "Ileal cannulated Syrian hamster C. difficile infection model", "type": "in vivo, Golden Syrian hamsters", "method": "Following ileal cannulation surgery and recovery, male Golden Syrian hamsters were inoculated with Clostridium difficile UNT103-1 (VA11, non epidemic (cdtB-, REA group J) Curtis Donskey, Cleveland VA Hospital, Cleveland, Ohio). On Day 1, at 24 hrs after infection, all animals received a single subcutaneous injection of clindamycin (10 mg/kg). Test article formulations were administered three times per day (TID), starting on Day 2 at 18 hours after Clindamycin injection, for 5 consecutive days (Days 2 through 6). Vancomycin (positive control) was administered once a day at 20 mg/kg on Days 2 through 6, and followed until Day 22 to assess recurrence. The cecal contents from all hamsters that died on study or euthanized at the end ([…]) were tested for C. difficile Toxin A and Toxin B (tgc BIOMICS ELISA Kit, cat# TGC-E002-1) and for C. difficile Spore counts. Spore titer was determined by incubating the cecal contents in 50% final concentration of ethanol for 60 minutes at room temperature, centrifuging and resuspending the pellet in nano-pure water. The resuspension is incubated at 65° C. for 15 minutes, centrifuged again and the pellet resuspended again in nano-pure water. […] After 48 hours of anaerobic incubation, spore counts are determined as colony forming units (CFUs)."}, "[7]": {"system": "Peptostreptococcus anaerobius (ATCC 27337)", "assay": "microbe, parasite or virus in culture", "settings": "ATCC27337, read-out: MIC P. anaerobius"}, "Staphylococcus aureus": {"system": "Staphylococcus aureus", "assay": "MIC assay against Staphylococcus aureus", "type": "cell-based", "settings": "Staphylococcus aureus, ATCC700699, read-out: MIC S. aureus ATCC 700699"}, "[8]": {"system": "Clostridium difficile UNT103-1", "assay": "Second non-cannulated Syrian hamster C. difficile infection model, oral gavage dose range-finding", "type": "in vivo, Golden Syrian hamsters", "method": "as §1, with “formulated at 3 to 5 different doses” for “formulations”, “above.” for “above”"}, "[9]": {"settings": "vancomycin control, 20 mg/kg once a day"}}, "note": "Where two headings read alike, the source gives them in different places.", "data": [{"compound": "CN[C@H](CC(C)C)C(=O)N[C@H]1C(=O)N[C@@H](CC(N)=O)C(=O)N[C@H]2C(=O)N[C@H]3C(=O)N[C@H](C(=O)N[C@H](C(=O)O)c4cc(O)cc(O)c4-c4cc3ccc4O)[C@H](O)c3ccc(c(Cl)c3)Oc3cc2cc(c3O[C@@H]2O[C@H](CO)[C@@H](O)[C@H](O)[C@H]2O[C@H]2C[C@](C)(N)[C@H](O)[C@H](C)O2)Oc2ccc(cc2Cl)[C@H]1O", "note": "[Vancomycin]", "values": [{"measurement": "MIC", "setting": "Clostridium difficile; ATCC9689, strain ATCC 9689, first value of cell (first of two independent tests), read-out: C. difficile MIC ATCC 9689", "value": 4, "unit": "µg/mL"}, {"measurement": "MIC", "setting": "Clostridium difficile; ATCC9689, strain ATCC 9689, multi-site variants, read-out: C. difficile MIC ATCC 9689", "value": 0.5, "unit": "µg/mL"}, {"measurement": "MIC", "setting": "Clostridium difficile; ATCC9689, strain ATCC 9689, second value of cell (second independent test), read-out: C. difficile MIC ATCC 9689", "value": 8, "unit": "µg/mL"}, {"measurement": "MIC", "setting": "Clostridium difficile; ATCC43255, strain ATCC 43255, read-out: C. difficile MIC ATCC 43255", "value": 1, "unit": "µg/mL"}, {"measurement": "MIC", "setting": "Clostridium difficile; ATCC43596, strain ATCC 43596, read-out: C. difficile MIC ATCC 43596", "value": 1, "unit": "µg/mL"}, {"measurement": "MIC", "setting": "Clostridium difficile; ATCC43597, strain ATCC 43597, read-out: C. difficile MIC ATCC 43597", "value": 0.5, "unit": "µg/mL"}, {"measurement": "MIC", "setting": "Clostridium difficile; ATCC70057, read-out: C. difficile MIC ATCC 70057, strain ATCC 70057, first value of cell (first of two independent tests)", "value": 0.5, "unit": "µg/mL"}, {"measurement": "MIC", "setting": "Clostridium difficile; ATCC70057, strain ATCC 70057, second value of cell (second independent test), read-out: C. difficile MIC ATCC 70057", "value": 1, "unit": "µg/mL"}, {"measurement": "MIC", "setting": "Clostridium difficile; ATCCBAA1805, strain ATCC BAA-1805, multi-site variants, read-out: C. difficile MIC ATCC BAA-1805", "value": 1, "unit": "µg/mL"}, {"measurement": "MIC", "setting": "Clostridium difficile; ATCCBAA1808, strain ATCC BAA-1808, read-out: C. difficile MIC ATCC BAA-1808", "value": 0.5, "unit": "µg/mL"}, {"measurement": "MIC", "setting": "Clostridium difficile; ATCCBAA1874, strain ATCC BAA-1874, read-out: C. difficile MIC ATCC BAA-1874", "value": 0.5, "unit": "µg/mL"}, {"measurement": "MIC", "setting": "Clostridium difficile; ATCCBAA1875, strain ATCC BAA-1875, multi-site variants, read-out: C. difficile MIC ATCC BAA-1875", "value": 0.5, "unit": "µg/mL"}, {"measurement": "MIC", "setting": "Clostridium difficile; BAA1805, strain BAA-1805, single site variants, read-out: C. difficile MIC BAA-1805", "value": 1, "unit": "µg/mL"}, {"measurement": "MIC", "setting": "Clostridium difficile; BAA1875, strain BAA-1875, single site variants, read-out: C. difficile MIC BAA-1875", "value": 1, "unit": "µg/mL"}, {"measurement": "MIC", "setting": "Clostridium difficile; strain 103-1 (UNT103-1), read-out: C. difficile MIC 103-1", "value": 1, "unit": "µg/mL"}, {"measurement": "MIC", "setting": "Clostridium difficile; strain 107-1 (UNT107-1), read-out: C. difficile MIC 107-1", "value": 4, "unit": "µg/mL"}, {"measurement": "MIC", "setting": "Clostridium difficile; strain BI1, read-out: C. difficile MIC BI1", "value": 8, "unit": "µg/mL"}, {"measurement": "MIC", "setting": "[1]", "value": 1, "unit": "µg/mL"}, {"measurement": "MIC", "setting": "[2]", "value": 1, "unit": "µg/mL"}, {"measurement": "Mean LOG10 CFU/mL of feces homogenates (cecal spore counts) at Day-22", "setting": "[3]; hamster, in vivo, po", "value": 2.96, "unit": "LOG10 CFU/mL"}, {"measurement": "Percent Survival at Day-22", "setting": "[3]; oral gavage TID Days 2-6, vancomycin 20 mg/kg once a day", "value": 83, "unit": "%"}, {"measurement": "Toxin A level at Day-22", "setting": "[3]; oral gavage, first value of A/B cell, limit of detection 0.8", "value": 84.2, "unit": "ng/mL"}, {"measurement": "Toxin B level at Day-22", "setting": "[3]; oral gavage, second value of A/B cell, limit of detection 0.8", "value": 8, "unit": "ng/mL"}, {"measurement": "MIC", "setting": "[4]", "value": 0.25, "unit": "µg/mL"}, {"measurement": "MIC", "setting": "[5]", "value": 0.5, "unit": "µg/mL"}, {"measurement": "Mean LOG10 CFU/mL of feces homogenates (cecal spore counts) at Day-22", "setting": "[6]; hamster, in vivo", "value": 3.24, "unit": "LOG10 CFU/mL"}, {"measurement": "Percent Survival at Day-22", "setting": "[6]; ileal cannulated hamsters, test articles TID Days 2-6, vancomycin 20 mg/kg once a day", "value": 33, "unit": "%"}, {"measurement": "MIC", "setting": "[7]", "value": 1, "unit": "µg/mL"}, {"measurement": "MIC", "setting": "Staphylococcus aureus", "value": 2, "unit": "µg/mL"}, {"measurement": "Mean LOG10 CFU/mL of feces homogenates (cecal spore counts) at Day-22", "setting": "[8]; hamster, in vivo, 20 mg/kg", "value": 6.66, "unit": "LOG10 CFU/mL"}, {"measurement": "Percent Survival at Day-22", "setting": "[8]; hamster, in vivo, 20 mg/kg", "value": 50, "unit": "%"}, {"measurement": "Toxin A level at Day-22", "setting": "[8]; [9]", "value": 292.6, "unit": "ng/mL"}, {"measurement": "Toxin B level at Day-22", "setting": "[8]; [9]", "value": 71.1, "unit": "ng/mL"}]}]}
